Assay results from PubChem BioAssay AID1963841 (Molecular Pharmacology Branch, DTP, NCI, 2024).
pIC50: −log10 of the molar value.

Tested on: 439559-082-T-J2-PDC spheroid viability
Assay: Anticancer human tumor 439559-082-T-J2-PDC patient-derived colon adenocarcinoma cell line growth inhibition [POLQ]
Details: spheroids with HUVEC and MSC; for pIC50: curve of first compound; for viability, T/C: stronger effect = lower value
In short: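 PDC + HUVEC + MSC complex spheroids; POLQ inhibitors ± partner drugs; top conc. at/near clinical Cmax, else 10 microM (SN-38 1 microM), half-log dilutions; 37 degrees C, 5% CO2.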

[1] = second compound 0.0316 µM, first compound 0.00316 µM
[2] = second compound 0.0316 µM, first compound 0.01 µM
[3] = second compound 0.0316 µM, first compound 0.0316 µM
[4] = second compound 0.0316 µM, first compound 0.1 µM
[5] = second compound 0.0316 µM, first compound 0.316 µM
[6] = second compound 0.0316 µM, first compound 1 µM
[7] = second compound 0.1 µM, first compound 0.00316 µM
[8] = second compound 0.1 µM, first compound 0.01 µM
[9] = second compound 0.1 µM, first compound 0.0316 µM
[10] = second compound 0.1 µM, first compound 0.1 µM
[11] = second compound 0.1 µM, first compound 0.316 µM
[12] = second compound 0.1 µM, first compound 1 µM
[13] = second compound 0.316 µM, first compound 0.00316 µM
[14] = second compound 0.316 µM, first compound 0.01 µM
[15] = second compound 0.316 µM, first compound 0.0316 µM
[16] = second compound 0.316 µM, first compound 0.1 µM
[17] = second compound 0.316 µM, first compound 0.316 µM
[18] = second compound 0.316 µM, first compound 1 µM
[19] = second compound 1 µM, first compound 0.00316 µM
[20] = second compound 1 µM, first compound 0.01 µM
[21] = second compound 1 µM, first compound 0.0316 µM
[22] = second compound 1 µM, first compound 0.1 µM
[23] = second compound 1 µM, first compound 0.316 µM
[24] = second compound 1 µM, first compound 1 µM
[25] = second compound 3.16 µM, first compound 0.00316 µM
[26] = second compound 3.16 µM, first compound 0.01 µM
[27] = second compound 3.16 µM, first compound 0.0316 µM
[28] = second compound 3.16 µM, first compound 0.1 µM
[29] = second compound 3.16 µM, first compound 0.316 µM
[30] = second compound 3.16 µM, first compound 1 µM
[31] = second compound 10 µM, first compound 0.00316 µM
[32] = second compound 10 µM, first compound 0.01 µM
[33] = second compound 10 µM, first compound 0.0316 µM
[34] = second compound 10 µM, first compound 0.1 µM
[35] = second compound 10 µM, first compound 0.316 µM
[36] = second compound 10 µM, first compound 1 µM
[37] = second compound 0.0316 µM, first compound 3.16 µM
[38] = second compound 0.0316 µM, first compound 10 µM
[39] = second compound 0.1 µM, first compound 3.16 µM
[40] = second compound 0.1 µM, first compound 10 µM
[41] = second compound 0.316 µM, first compound 3.16 µM
[42] = second compound 0.316 µM, first compound 10 µM
[43] = second compound 1 µM, first compound 3.16 µM
[44] = second compound 1 µM, first compound 10 µM
[45] = second compound 3.16 µM, first compound 3.16 µM
[46] = second compound 3.16 µM, first compound 10 µM
[47] = second compound 10 µM, first compound 3.16 µM
[48] = second compound 10 µM, first compound 10 µM
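Further: spheroids exposed to compounds for seven days before readout.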
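Wherever viability, T/C is given: 100% = DMSO vehicle control viability.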

In the case of C=CCn1c(=O)c2cnc(Nc3ccc(N4CCN(C)CC4)cc3)nc2n1-c1cccc(C(C)(C)O)n1 + Cc1cccc(N(C)C(=O)C2C(O)CCN2c2nc(C)cc(C(F)(F)F)c2C#N)c1, the pIC50 (second compound 0.0316 µM) was < 6.00, the pIC50 (second compound 0.1 µM) was < 6.00 and the pIC50 (second compound 0.316 µM) was < 6.00. The pIC50 (second compound 1 µM) was < 6.00, the pIC50 (second compound 3.16 µM) was < 6.00 and the pIC50 (second compound 10 µM) was < 6.00. The viability, T/C [1] was 104%, the viability, T/C [2] was 96.8% and the viability, T/C [3] was 93.3%. For the same molecule, the viability, T/C [4] was 92.1%, the viability, T/C [5] was 83.7% and the viability, T/C [6] was 78.9%. It also gave a viability, T/C [7] of 98%, a viability, T/C [8] of 103% and a viability, T/C [9] of 107%. For the same molecule, the viability, T/C [10] was 88.3%, the viability, T/C [11] was 93.1% and the viability, T/C [12] was 84.1%. For the same molecule, the viability, T/C [13] was 104%, the viability, T/C [14] was 104% and the viability, T/C [15] was 85.8%. It also gave a viability, T/C [16] of 95.3%, a viability, T/C [17] of 100% and a viability, T/C [18] of 71%. The viability, T/C [19] was 86.3%, the viability, T/C [20] was 99.8% and the viability, T/C [21] was 102%. It also gave a viability, T/C [22] of 102%, a viability, T/C [23] of 93.4% and a viability, T/C [24] of 75.3%. The viability, T/C [25] was 94.6%, the viability, T/C [26] was 105% and the viability, T/C [27] was 91.7%. It also gave a viability, T/C [28] of 95.4%, a viability, T/C [29] of 96.5% and a viability, T/C [30] of 76.8%. The viability, T/C [31] was 100%, the viability, T/C [32] was 90.6% and the viability, T/C [33] was 99.3%. The viability, T/C [34] was 97.8%, the viability, T/C [35] was 93.5% and the viability, T/C [36] was 74.3%.
Molecule CCc1c2c(nc3ccc(O)cc13)-c1cc3c(c(=O)n1C2)COC(=O)[C@]3(O)CC + Cc1cccc(N(C)C(=O)C2C(O)CCN2c2nc(C)cc(C(F)(F)F)c2C#N)c1 has a pIC50 (second compound 0.0316 µM) of 6.13, a pIC50 (second compound 0.1 µM) of 6.15 and a pIC50 (second compound 0.316 µM) of 6.16. It also gave a pIC50 (second compound 1 µM) of 6.15, a pIC50 (second compound 3.16 µM) of 6.01 and a pIC50 (second compound 10 µM) of 6.15. It also gave a viability, T/C [1] of 92.9%, a viability, T/C [2] of 82.2% and a viability, T/C [3] of 70.8%. For the same molecule, the viability, T/C [4] was 74.7%, the viability, T/C [5] was 64% and the viability, T/C [6] was 43.2%. For the same molecule, the viability, T/C [7] was 90.9%, the viability, T/C [8] was 87% and the viability, T/C [9] was 74.5%. For the same molecule, the viability, T/C [10] was 68.3%, the viability, T/C [11] was 65.7% and the viability, T/C [12] was 42.8%. For the same molecule, the viability, T/C [13] was 95.3%, the viability, T/C [14] was 82.2% and the viability, T/C [15] was 76.3%. The viability, T/C [16] was 70.6%, the viability, T/C [17] was 63% and the viability, T/C [18] was 42.9%. It also gave a viability, T/C [19] of 90.9%, a viability, T/C [20] of 90.9% and a viability, T/C [21] of 74%. The viability, T/C [22] was 67.1%, the viability, T/C [23] was 62.5% and the viability, T/C [24] was 44.9%. It also gave a viability, T/C [25] of 90.3%, a viability, T/C [26] of 76.8% and a viability, T/C [27] of 72.1%. The viability, T/C [28] was 71%, the viability, T/C [29] was 62.8% and the viability, T/C [30] was 47.2%. It also gave a viability, T/C [31] of 80.6%, a viability, T/C [32] of 76.3% and a viability, T/C [33] of 66.9%. The viability, T/C [34] was 68.4%, the viability, T/C [35] was 60.5% and the viability, T/C [36] was 44.9%.
CNCc1ccc(-c2[nH]c3cc(F)cc4c3c2CCNC4=O)cc1 + Cc1cccc(N(C)C(=O)C2C(O)CCN2c2nc(C)cc(C(F)(F)F)c2C#N)c1 was tested, and the pIC50 (second compound 0.0316 µM) was < 5.00, the pIC50 (second compound 0.1 µM) was < 5.00 and the pIC50 (second compound 0.316 µM) was < 5.00. The pIC50 (second compound 1 µM) was < 5.00, the pIC50 (second compound 3.16 µM) was < 5.00 and the pIC50 (second compound 10 µM) was < 5.00. For the same molecule, the viability, T/C [3] was 94.8%, the viability, T/C [4] was 108% and the viability, T/C [5] was 99.3%. It also gave a viability, T/C [6] of 96.5%, a viability, T/C [37] of 102% and a viability, T/C [38] of 110%. It also gave a viability, T/C [9] of 103%, a viability, T/C [10] of 105% and a viability, T/C [11] of 108%. For the same molecule, the viability, T/C [12] was 95.8%, the viability, T/C [39] was 101% and the viability, T/C [40] was 96.8%. It also gave a viability, T/C [15] of 105%, a viability, T/C [16] of 105% and a viability, T/C [17] of 98.3%. It also gave a viability, T/C [18] of 114%, a viability, T/C [41] of 102% and a viability, T/C [42] of 102%. The viability, T/C [21] was 99.3%, the viability, T/C [22] was 92.6% and the viability, T/C [23] was 92.2%. The viability, T/C [24] was 106%, the viability, T/C [43] was 95.7% and the viability, T/C [44] was 106%. For the same molecule, the viability, T/C [27] was 105%, the viability, T/C [28] was 98.3% and the viability, T/C [29] was 96.9%. For the same molecule, the viability, T/C [30] was 99.1%, the viability, T/C [45] was 102% and the viability, T/C [46] was 99.5%. It also gave a viability, T/C [33] of 88.4%, a viability, T/C [34] of 92.8% and a viability, T/C [35] of 93.5%. For the same molecule, the viability, T/C [36] was 91.1%, the viability, T/C [47] was 97.2% and the viability, T/C [48] was 100%.
Molecule Nc1ccn(C2OC(CO)C(O)C2(F)F)c(=O)n1 (stereo not drawn) + Cc1cccc(N(C)C(=O)C2C(O)CCN2c2nc(C)cc(C(F)(F)F)c2C#N)c1 has a pIC50 (second compound 0.0316 µM) of 6.03, a pIC50 (second compound 0.1 µM) of 6.02 and a pIC50 (second compound 0.316 µM) of 6.08. It also gave a pIC50 (second compound 1 µM) of 6.17, a pIC50 (second compound 3.16 µM) of 6.10 and a pIC50 (second compound 10 µM) of 6.08. It also gave a viability, T/C [3] of 77.8%, a viability, T/C [4] of 71.7% and a viability, T/C [5] of 60.6%. The viability, T/C [6] was 49.9%, the viability, T/C [37] was 37.5% and the viability, T/C [38] was 30.6%. The viability, T/C [9] was 85.4%, the viability, T/C [10] was 76.9% and the viability, T/C [11] was 63.8%. The viability, T/C [12] was 48.5%, the viability, T/C [39] was 39.8% and the viability, T/C [40] was 32.1%. For the same molecule, the viability, T/C [15] was 82.5%, the viability, T/C [16] was 75.8% and the viability, T/C [17] was 63.3%. For the same molecule, the viability, T/C [18] was 47.5%, the viability, T/C [41] was 35.4% and the viability, T/C [42] was 29.6%. For the same molecule, the viability, T/C [21] was 83.2%, the viability, T/C [22] was 76.1% and the viability, T/C [23] was 61.3%. It also gave a viability, T/C [24] of 43.1%, a viability, T/C [43] of 37.7% and a viability, T/C [44] of 30.9%. For the same molecule, the viability, T/C [27] was 79.8%, the viability, T/C [28] was 69.3% and the viability, T/C [29] was 59.4%. For the same molecule, the viability, T/C [30] was 47.1%, the viability, T/C [45] was 38.3% and the viability, T/C [46] was 31.4%. The viability, T/C [33] was 80.3%, the viability, T/C [34] was 70.6% and the viability, T/C [35] was 57.1%. The viability, T/C [36] was 49.5%, the viability, T/C [47] was 40% and the viability, T/C [48] was 35%.
